Data as given in patent US7420056B2, “Substituted bicyclic imidazo-3-ylamine compounds” (Gruenenthal GmbH, priority 2004, dated 2008).

Target: mGluR5 receptor (Sus scrofa, UniProt I3LUI7)
Assay: Affinity for the mGluR5 receptor: inhibition of 3[H]-MPEP binding in pig brain homogenate
Settings: 10 μM compound, 5 nM 3[H]-MPEP, read-out: mGluR5 receptor inhibition of ^3[H]-MPEP binding [10 μM] in % at a concentration of the example compounds of 10 μM
How it was run: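 Pig brain membranes (450 μg protein; hemispheres without medulla, cerebellum and pons) in 30 mM Hepes pH 8.0 were incubated 60 min at room temperature with 5 nM [3H]-MPEP and compound at 10 μM. Bound radioactivity was filtered and counted. Nonspecific binding was defined with 10 μM MPEP.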

mGluR5 receptor, sequence (I3LUI7 19-1212): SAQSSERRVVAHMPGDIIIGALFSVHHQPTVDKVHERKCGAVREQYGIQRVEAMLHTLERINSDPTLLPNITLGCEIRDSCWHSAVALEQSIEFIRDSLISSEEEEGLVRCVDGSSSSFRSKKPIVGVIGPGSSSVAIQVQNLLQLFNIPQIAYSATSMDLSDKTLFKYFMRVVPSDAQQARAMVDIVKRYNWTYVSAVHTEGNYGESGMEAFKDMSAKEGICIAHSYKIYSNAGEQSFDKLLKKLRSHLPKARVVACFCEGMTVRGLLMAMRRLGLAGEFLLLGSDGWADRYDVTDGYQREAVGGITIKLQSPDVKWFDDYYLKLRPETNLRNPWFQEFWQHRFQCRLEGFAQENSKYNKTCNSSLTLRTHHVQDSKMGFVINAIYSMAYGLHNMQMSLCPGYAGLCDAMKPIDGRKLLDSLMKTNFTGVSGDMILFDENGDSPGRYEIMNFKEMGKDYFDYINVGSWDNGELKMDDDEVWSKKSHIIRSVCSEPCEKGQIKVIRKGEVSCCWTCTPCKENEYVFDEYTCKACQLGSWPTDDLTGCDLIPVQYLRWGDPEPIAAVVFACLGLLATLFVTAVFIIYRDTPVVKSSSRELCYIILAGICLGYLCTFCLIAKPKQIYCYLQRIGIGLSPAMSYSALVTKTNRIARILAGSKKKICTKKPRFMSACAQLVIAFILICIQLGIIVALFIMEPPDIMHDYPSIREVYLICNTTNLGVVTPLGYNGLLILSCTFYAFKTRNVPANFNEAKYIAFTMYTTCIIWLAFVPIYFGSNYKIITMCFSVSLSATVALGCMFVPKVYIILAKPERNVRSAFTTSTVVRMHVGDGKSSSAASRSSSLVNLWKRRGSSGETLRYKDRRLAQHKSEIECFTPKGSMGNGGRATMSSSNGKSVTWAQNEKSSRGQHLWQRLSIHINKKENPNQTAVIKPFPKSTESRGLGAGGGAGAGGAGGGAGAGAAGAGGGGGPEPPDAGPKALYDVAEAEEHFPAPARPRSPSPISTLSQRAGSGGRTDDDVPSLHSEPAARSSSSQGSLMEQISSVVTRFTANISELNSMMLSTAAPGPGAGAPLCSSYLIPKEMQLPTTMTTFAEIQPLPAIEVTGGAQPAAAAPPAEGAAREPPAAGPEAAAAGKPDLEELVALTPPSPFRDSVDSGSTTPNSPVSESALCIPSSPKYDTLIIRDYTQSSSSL

inhibition at 10 µM [%]	Compound
93	Cc1ccc2nc(-c3ccc(C#Cc4ccccn4)s3)c(NC(C)(C)CC(C)(C)C)n2c1 [Example 270, 6-methyl-2-(5-(pyridin-2-ylethynyl)thiophen-2-yl)-N-(2,4,4-trimethylpentan-2-yl)imidazo[1,2-a]pyridin-3-amine]
31	Cc1ccc2nc(-c3ccc(C#Cc4ccccc4)nc3C)c(NC(C)(C)CC(C)(C)C)n2c1 [Example 271, 6-methyl-2-(2-methyl-6-(phenylethynyl)pyridin-3-yl)-N-(2,4,4-trimethylpentan-2-yl)imidazo[1,2-a]pyridin-3-amine]
72	Cc1ccc2nc(-c3ccc(C#Cc4ccccn4)o3)c(NC3CCCC3)n2c1 [Example 272, N-cyclopentyl-6-methyl-2-(5-(pyridin-2-ylethynyl)furan-2-yl)imidazo[1,2-a]pyridin-3-amine]
84	Cc1ccc2nc(-c3cccc(C#Cc4cccc(C)n4)c3)c(NC3CCCCC3)n2c1 [Example 273, N-cyclohexyl-6-methyl-2-(3-((6-methylpyridin-2-yl)ethynyl)phenyl)imidazo[1,2-a]pyridin-3-amine]
85	Cc1ccn2c(NC3CCCCC3)c(-c3ccc(C#Cc4ccccn4)s3)nc2c1 [Example 274, N-cyclohexyl-7-methyl-2-(5-(pyridin-2-ylethynyl)thiophen-2-yl)imidazo[1,2-a]pyridin-3-amine]
85	Cc1ccn2c(NC(C)(C)CC(C)(C)C)c(-c3ccc(C#Cc4ccccn4)s3)nc2c1 [Example 275, 7-methyl-2-(5-(pyridin-2-ylethynyl)thiophen-2-yl)-N-(2,4,4-trimethylpentan-2-yl)imidazo[1,2-a]pyridin-3-amine]
93	Cc1ccn2c(NC(C)(C)C)c(-c3cccc(C#Cc4ccccn4)c3)nc2c1 [Example 276, N-tert-butyl-7-methyl-2-(3-(pyridin-2-ylethynyl)phenyl)imidazo[1,2-a]pyridin-3-amine]
95	Cc1ccn2c(Nc3ccc(F)cc3)c(-c3cccc(C#Cc4ccccn4)c3)nc2c1 [Example 277, N-(4-fluorophenyl)-7-methyl-2-(3-(pyridin-2-ylethynyl)phenyl)imidazo[1,2-a]pyridin-3-amine]
93	Cc1ccn2c(NC(C)(C)C)c(-c3ccc(C#Cc4ccccn4)cc3)nc2c1 [Example 278, N-tert-butyl-7-methyl-2-(4-(pyridin-2-ylethynyl)phenyl)imidazo[1,2-a]pyridin-3-amine]
67	Cc1ccn2c(Nc3ccc(F)cc3)c(-c3ccc(C#Cc4ccccn4)o3)nc2c1 [Example 279, N-(4-fluorophenyl)-7-methyl-2-(5-(pyridin-2-ylethynyl)furan-2-yl)imidazo[1,2-a]pyridin-3-amine]
31	Cc1cccn2c(NC3CCCCC3)c(-c3ccc(C#Cc4ccccc4)nc3)nc12 [Example 280, N-cyclohexyl-8-methyl-2-(6-(phenylethynyl)pyridin-3-yl)imidazo[1,2-a]pyridin-3-amine]
83	C(#Cc1ccc(-c2nc3ccccn3c2NC2CCCC2)cn1)c1ccccc1 [Example 281, N-cyclopentyl-2-(6-(phenylethynyl)pyridin-3-yl)imidazo[1,2-a]pyridin-3-amine]
72	CC(C)(C)Nc1c(-c2ccc(C#Cc3ccccc3)nc2)nc2ccccn12 [Example 282, N-tert-butyl-2-(6-(phenylethynyl)pyridin-3-yl)imidazo[1,2-a]pyridin-3-amine]
82	C(#Cc1ccc(-c2nc3ccccn3c2NC2CCCCC2)cn1)c1ccccc1 [Example 283, N-cyclohexyl-2-(6-(phenylethynyl)pyridin-3-yl)imidazo[1,2-a]pyridin-3-amine]
68	CC(C)(C)CC(C)(C)Nc1c(-c2ccc(C#Cc3ccccc3)nc2)nc2ccccn12 [Example 284, 2-(6-(phenylethynyl)pyridin-3-yl)-N-(2,4,4-trimethylpentan-2-yl)imidazo[1,2-a]pyridin-3-amine]
88	CC(C)(C)Nc1c(-c2ccc(C#Cc3ccccn3)o2)nc2ccccn12 [Example 285, N-tert-butyl-2-(5-(pyridin-2-ylethynyl)furan-2-yl)imidazo[1,2-a]pyridin-3-amine]
72	C(#Cc1ccc(-c2nc3ccccn3c2NC2CCCCC2)o1)c1ccccn1 [Example 286, N-cyclohexyl-2-(5-(pyridin-2-ylethynyl)furan-2-yl)imidazo[1,2-a]pyridin-3-amine]
30	Fc1ccc(Nc2c(-c3ccc(C#Cc4ccccn4)o3)nc3ccccn23)cc1 [Example 287, N-(4-fluorophenyl)-2-(5-(pyridin-2-ylethynyl)furan-2-yl)imidazo[1,2-a]pyridin-3-amine]
89	Cc1cccc(C#Cc2cccc(-c3nc4ccccn4c3NC3CCCCC3)c2)n1 [Example 288, N-cyclohexyl-2-(3-((6-methylpyridin-2-yl)ethynyl)phenyl)imidazo[1,2-a]pyridin-3-amine]

inhibition at 10 µM [%]	Compound
51	Cc1cccc(C#Cc2cccc(-c3nc4ccccn4c3NC(C)(C)CC(C)(C)C)c2)n1 [Example 289, 2-(3-((6-methylpyridin-2-yl)ethynyl)phenyl)-N-(2,4,4-trimethylpentan-2-yl)imidazo[1,2-a]pyridin-3-amine]
88	Cc1cccc(C#Cc2cccc(-c3nc4cccc(C)n4c3NC(C)(C)C)c2)n1 [Example 290, N-tert-butyl-5-methyl-2-(3-((6-methylpyridin-2-yl)ethynyl)phenyl)imidazo[1,2-a]pyridin-3-amine]
92	Cc1cccc(C#Cc2cccc(-c3nc4cccc(C)n4c3NC(C)(C)CC(C)(C)C)c2)n1 [Example 291, 5-methyl-2-(3-((6-methylpyridin-2-yl)ethynyl)phenyl)-N-(2,4,4-trimethylpentan-2-yl)imidazo[1,2-a]pyridin-3-amine]
88	Cc1cc(C)n2c(NC3CCCCC3)c(-c3cccc(C#Cc4ccccn4)c3)nc2n1 [Example 292, N-cyclohexyl-5,7-dimethyl-2-(3-(pyridin-2-ylethynyl)phenyl)imidazo[1,2-a]pyrimidin-3-amine]
70	Cc1cc(C)n2c(NC3CCCCC3)c(-c3ccc(C#Cc4ccccc4)nc3C)nc2n1 [Example 293, N-cyclohexyl-5,7-dimethyl-2-(2-methyl-6-(phenylethynyl)pyridin-3-yl)imidazo[1,2-a]pyrimidin-3-amine]
79	Cc1cc(C)n2c(NC3CCCC3)c(-c3ccc(C#Cc4ccccn4)o3)nc2n1 [Example 294, N-cyclopentyl-5,7-dimethyl-2-(5-(pyridin-2-ylethynyl)furan-2-yl)imidazo[1,2-a]pyrimidin-3-amine]
84	Cc1cc(C)n2c(NC(C)(C)C)c(-c3ccc(C#Cc4ccccn4)o3)nc2n1 [Example 295, N-tert-butyl-5,7-dimethyl-2-(5-(pyridin-2-ylethynyl)furan-2-yl)imidazo[1,2-a]pyrimidin-3-amine]
85	Cc1cccn2c(Nc3ccc(F)cc3)c(-c3cccc(C#Cc4ccccn4)c3)nc12 [Example 296, N-(4-fluorophenyl)-8-methyl-2-(3-(pyridin-2-ylethynyl)phenyl)imidazo[1,2-a]pyridin-3-amine]
80	Cc1cccn2c(NC3CCCCC3)c(-c3ccc(C#Cc4ccccn4)cc3)nc12 [Example 297, N-cyclohexyl-8-methyl-2-(4-(pyridin-2-ylethynyl)phenyl)imidazo[1,2-a]pyridin-3-amine]
95	CCc1ccn2c(NC3CCCCC3)c(-c3ccc(C#Cc4ccccn4)s3)nc2c1 [Example 298, N-cyclohexyl-7-ethyl-2-(5-(pyridin-2-ylethynyl)thiophen-2-yl)imidazo[1,2-a]pyridin-3-amine]
86	CCc1ccn2c(NC(C)(C)CC(C)(C)C)c(-c3ccc(C#Cc4ccccn4)s3)nc2c1 [Example 299, 7-ethyl-2-(5-(pyridin-2-ylethynyl)thiophen-2-yl)-N-(2,4,4-trimethylpentan-2-yl)imidazo[1,2-a]pyridin-3-amine]
50	CCc1ccn2c(NC3CCCCC3)c(-c3cccc(C#Cc4ccccn4)c3)nc2c1 [Example 300, N-cyclohexyl-7-ethyl-2-(3-(pyridin-2-ylethynyl)phenyl)imidazo[1,2-a]pyridin-3-amine]
78	CCc1ccn2c(NC3CCCC3)c(-c3ccc(C#Cc4ccccn4)cc3)nc2c1 [Example 301, N-cyclopentyl-7-ethyl-2-(4-(pyridin-2-ylethynyl)phenyl)imidazo[1,2-a]pyridin-3-amine]
55	CCc1ccn2c(NC3CCCC3)c(-c3ccc(C#Cc4ccccc4)nc3)nc2c1 [Example 302, N-cyclopentyl-7-ethyl-2-(6-(phenylethynyl)pyridin-3-yl)imidazo[1,2-a]pyridin-3-amine]
67	CCc1ccn2c(NC(C)(C)C)c(-c3ccc(C#Cc4ccccc4)nc3)nc2c1 [Example 303, N-tert-butyl-7-ethyl-2-(6-(phenylethynyl)pyridin-3-yl)imidazo[1,2-a]pyridin-3-amine]
94	CCc1ccn2c(NC(C)(C)C)c(-c3ccc(C#Cc4ccccn4)o3)nc2c1 [Example 304, N-tert-butyl-7-ethyl-2-(5-(pyridin-2-ylethynyl)furan-2-yl)imidazo[1,2-a]pyridin-3-amine]
75	CC(C)c1ccn2c(NC(C)(C)CC(C)(C)C)c(-c3ccc(C#Cc4ccccn4)s3)nc2c1 [Example 305, 7-isopropyl-2-(5-(pyridin-2-ylethynyl)thiophen-2-yl)-N-(2,4,4-trimethylpentan-2-yl)imidazo[1,2-a]pyridin-3-amine]
76	CC(C)c1ccn2c(NC(C)(C)C)c(-c3cccc(C#Cc4ccccn4)c3)nc2c1 [Example 306, N-tert-butyl-7-isopropyl-2-(3-(pyridin-2-ylethynyl)phenyl)imidazo[1,2-a]pyridin-3-amine]
